US20140249122A1, “ANTI-DIABETIC AMINOSTEROID DERIVATIVES” (UNIVERSITE NICE SOPHIA ANTIPOLIS, priority 2011, published 2014)
Entries after “also recorded” stand apart in the source; their conditions may differ.

Columns and labels:
GLUT4 [1] = test: Sensitivity of adipocytes to insulin (GLUT4 on the plasma membrane); type: cell-based; details: FIG. 3B
Protocol: The effect of insulin and of ST10 on the amount of GLUT4 on the plasma membrane was measured (FIG. 3A) and the sensitivity of the cells to insulin was calculated (FIG. 3B).

GLUT4 [2] = test: GLUT4 on the surface of insulin-resistant adipocytes; type: cell-based; details: adipocytes made insulin resistant by insulin for 24 h, then insulin for 20 min with or without ST10
3T3-L1 adipocytes = test: Glucose uptake in 3T3-L1 adipocytes; type: cell-based; details: various insulin concentrations, with or without ST10
GLUT4 [3] = test: GLUT4 at the surface of 3T3-L1 adipocytes, with or without insulin; type: cell-based; details: for effect on the effectiveness of insulin on GLUT4 translocation: 3T3-L1 adipocytes, 20 minutes, aminosteroid 50 μM, insulin 1 nM present or absent
From the text: One of the key components in the insulin-induced uptake of sugar by myocytes and adipocytes is the GLUT4 glucose (sugar) transporter. When insulin binds to its receptor at the surface of these cells, or during a muscle contraction, intracellular signalling pathways are activated, resulting in the translocation of GLUT4 from its intracellular storage compartment to the plasma membrane, where it enables sugar to enter from the extracellular medium. GLUT4 therefore plays an important role in carbohydrate homeostasis and, consequently, in T2D. 3T3-L1 adipocytes are stimulated for 20 minutes with the aminosteroids (50 μM), in the presence or absence of insulin (1 nM), and are labelled for GLUT4 at the surface of the cells. The percentage of GLUT4 at the surface of the cells is then determined.

[4] = parameters: species or system mice; details: mouse, in vivo
Protocol: Healthy mice were treated in the same way as previously. A dose of insulin was injected into these mice (at t=0). The blood glucose level of the mice was measured until 120 minutes after the insulin injection. […] The treatment with the ST20 derivative therefore prolongs the effect of insulin.

Structure (SMILES)	sensitivity of the cells to insulin (GLUT4 [1])	effect of insulin on GLUT4 on the surface of insulin-resistant cells (GLUT4 [2])	glucose uptake in adipocytes (3T3-L1 adipocytes)	effect on the effectiveness of insulin on GLUT4 translocation (GLUT4 [3])	increase in GLUT4 at the surface of the plasma membrane (PM), ST10 versus trodusquemine (GLUT4 [3]; FIG. 1C)	severe hypoglycaemia in the ITT [4]
CC(C)CCC[C@@H](C)[C@H]1CC[C@H]2[C@@H]3C[C@@H](NCCCNCCCCNCCCN)[C@H]4C[C@@H](O)CC[C@]4(C)[C@H]3CC[C@]12C [ST10, 6β-(spermine)cholestan-3β-ol]	increases the sensitivity of the cells to insulin	also increases the effect of the insulin	increases glucose uptake in the adipocytes; also recorded: increased by ST10 for all the insulin concentrations tested	increases the effectiveness of insulin on GLUT4 translocation	greater in the presence of ST10 than in the presence of trodusquemine	
CC(C)CCC[C@@H](C)[C@H]1CCC2C3C[C@@H](NCCCCNCCCN)C4=C[C@@H](O)CC[C@]4(C)C3CC[C@@]21C (stereo partly drawn) [ST20, 6β-(spermidine)cholesten-3β-ol]						did not cause severe hypoglycaemia
CC(C)[C@@H](CC[C@@H](C)[C@H]1CC[C@H]2[C@@H]3[C@H](O)C[C@H]4C[C@@H](NCCCNCCCCNCCCN)CC[C@]4(C)[C@H]3CC[C@]12C)OS(=O)(=O)O [trodusquemine, reference compound]				not		
